Measurements reported in US20090024021A1, “Methods and Systems for Using Transcranial Magnetic Stimulation and Functional Brain Mapping for Examining Cortical Sensitivity, Brain Communication, and Effects of Medication” (priority 2002, published 2009).
“Also recorded” adds a separate entry of the source.

Experiments:
left prefrontal cortex = test: Interleaved TMS/phMRI (BOLD fMRI) with TMS over prefrontal cortex; format: in vivo, human; conditions: for Voxels, effect of LTG (between day) / Z-score, effect of LTG (between day): Prefrontal Cortex Stimulation, LTG-Placebo
Experimental: (§1) Study design: We performed a randomized, double-blind, crossover trial involving two visits at least one week apart (FIG. 8). […] Serum LTG levels, RMTs, and interleaved TMS/phMRI images during both motor and then prefrontal TMS were then gathered for each subject. One week later they received LTG or placebo again, followed by identical RMT and interleaved TMS/phMRI studies.
Combined TMS and MRI: Immediately following RMT determination, interleaved TMS/phMRI acquisitions were performed in a Picker EDGE 1.5 T MR scanner with actively shielded magnet and high-performance gradients (27 mT/m, 72 T/m/sec) using a typical gradient echo, echo planar imaging (EPI) fMRI sequence (tip angle=90, TR=3 sec, FOV 27.0 cm, fifteen 7 mm thick slices, 1 mm gap). TMS was delivered using a Dantec MagPro with a special nonferromagnetic TMS coil of figure-8 design with an 8-meter cable (Dantec Medical A/S, Skovlunde, Denmark) and a room set up identical to prior TMS/fMRI studies from our group. TMS pulses and the fMRI sequence were interleaved as described before^21. Each cycle, illustrated in FIG. 9, consisted of six 21-sec sub-cycles—four Test and two task (100% RMT stimulation and 120% RMT stimulation). During each sub-cycle, the scanner acquired seven sets of 15 transverse images. During the task sub-cycles the TMS was triggered 100 ms after every […] image acquisition to produce a TMS stimulation rate of 1 Hz. The entire TMS/fMRI sequence lasted 882 sec (14.7 min).
On each visit, immediately after the Motor Cortex MRI study, subjects were removed from the scanner and the TMS device was moved to position it over the left prefrontal cortex. The left prefrontal cortex stimulation site was defined as a location 5-cm rostral and in a parasagittal plane from the site of maximal APB stimulation. Subjects then reentered the scanner for the prefrontal TMS scan, which was identical to the Motor study described above except for the TMS coil location.
Individual fMRI Data Analyses: MR scans were transferred into ANALYZE format and then further processed on Sun workstations (Sun Microsystems, Palo Alto, Calif.). Scans were checked using MEDx3.3 (Sensor Systems Inc, Sterling, Va.) for movement across runs, and then were coregistered to a mean image using automatic image registration. […] After correction of motion, we used a delayed boxcar model, employed a high-pass filter to remove signal drift, cardiac and respiratory effects, and other low frequency artifacts. Then, we spatially transformed each subject's data into the Talairach Atlas (input voxel dimensions, 2.1×2.1×8 mm, to output voxel dimensions, 4×4×4 mm), smoothed (4×2 mm) the data and generated z map with the Statistical Parametric Mapping (SPM) 96 module in MEDx3.3. We assumed an uncorrected F threshold UF P>0.99 to preserve as many voxels as possible for the cluster analysis.
Group fMRI Data Analyses: All subject's unthresholded z maps were combined based on comparison of condition (TMS vs Rest), intensity (100% RMT-TMS vs 120% RMT-TMS), visit (LTG vs Placebo). The combined group z maps were thresholded using z≧3.09 (p≦0.001) and cluster statistical weight (spatial extent threshold) of p<0.05. We used either paired or unpaired t-tests in MEDx3.3 for all comparisons of interest and both areas of stimulation.
Magnitude of BOLD time course response: To compare the magnitudes of BOLD signal changes, two types of data were recorded. The different maps of LTG and placebo were used to make a mask of left motor cortex (82 voxels) and a mask of left hippocampus (19 voxels) (FIGS. 11A and 11B bottom panels). The masks used to define location were taken as an index of relative peak intensity above noise. According to the masks' Talairach coordinates, the mean signal intensity of the highest six contiguous voxels (two in each slice) in each subject was extracted from motor cortex or hippocampus with SPM plotting in MEDx.

[1] = single oral dose of 325 mg of LTG; transiently (for 3 hours); cited from earlier work
[2] = test system: motor corticospinal pathways; conditions: volunteers or patients with complex partial seizures; cited from earlier work
[3] = Safety and tolerability in the crossover trial; format: in vivo, human; conditions: single oral dose of 325 mg LTG; healthy young men
Experimental: as §1
General Procedure: After arriving at the laboratory in the early afternoon, baseline RMT was determined and baseline plasma levels of LTG were drawn. They were then given a single oral dose of 325 mg LTG or placebo. They then waited quietly for 3 hours. Three hours after taking the oral pill, RMT was determined and serum plasma levels were again drawn.

Nc1nnc(-c2cccc(Cl)c2Cl)c(N)n1 [LTG, Lamotrigine]
number of active voxels in hippocampus, compared with placebo (left prefrontal cortex; 100% RMT minus rest over prefrontal cortex, left hippocampus, 8 subjects, Wilcoxon p=0.04): significantly more; also recorded: significantly increased
Z-score, region of activation (left prefrontal cortex; LTG day, within day, n = 8, 100% RMT-Rest, Left Hippocampus, Talairach −24,−8,−24): 3.53
Z-score, region of activation (left prefrontal cortex; LTG day, within day, n = 8, 100% RMT-Rest, Left cingulated gyrus, Talairach −8,−8,28): 4.08
Z-score, region of activation (left prefrontal cortex; LTG day, within day, n = 8, 100% RMT-Rest, Left middle frontal gyrus (BA 6), Talairach −32,4,60): 4.04
Z-score, region of activation (left prefrontal cortex; LTG day, within day, n = 8, 100% RMT-Rest, Right hippocampus, Amygdala, Talairach 20,−8,−16): 3.66
Z-score, region of activation (left prefrontal cortex; LTG day, within day, n = 8, 100% RMT-Rest, Right insula (BA 13), Talairach 52,−28,20): 4.26
Z-score, region of activation (left prefrontal cortex; LTG day, within day, n = 8, 100% RMT-Rest, Right middle frontal gyrus, Talairach 40,48,16): 3.96
Z-score, region of activation (left prefrontal cortex; LTG day, within day, n = 8, 100% RMT-Rest, Right postcentral gyrus (BA 3), Talairach 52,−16,40): 3.18
Z-score, region of activation (left prefrontal cortex; LTG day, within day, n = 8, 100% RMT-Rest, Right precentral gyrus, Talairach 36,−4,28): 4.02
Region of activation (left prefrontal cortex; LTG day, within day, n = 8, 120% RMT-100%): No activity
Z-score, region of activation (left prefrontal cortex; LTG day, within day, n = 8, 120% RMT-Rest, Left cingulate gyrus, Talairach −8,4,36): 3.98
Z-score, region of activation (left prefrontal cortex; LTG day, within day, n = 8, 120% RMT-Rest, Left medial frontal gyrus (BA 6), Talairach −48,44,−4): 4.15
Z-score, region of activation (left prefrontal cortex; LTG day, within day, n = 8, 120% RMT-Rest, Left postcentral gyrus (BA 2), Talairach −56,−24,36): 4.12
Z-score, region of activation (left prefrontal cortex; LTG day, within day, n = 8, 120% RMT-Rest, Left superior temporal gyrus, Talairach −60,4,−4): 4.14
Z-score, region of activation (left prefrontal cortex; LTG day, within day, n = 8, 120% RMT-Rest, Right precentral gyrus, Talairach 52,−8,44): 4.31
Z-score, region of activation (left prefrontal cortex; LTG day, within day, n = 8, 120% RMT-Rest, Right superior temporal gyrus, Talairach 56,−12,8): 4.53
Voxels, effect of LTG (between day) (left prefrontal cortex; Gyrus frontal medius, Right): 35
Z-score, effect of LTG (between day) (left prefrontal cortex; Gyrus frontal medius, Right, Talairach 30,25,41, p < .01): 2.83
Voxels, effect of LTG (between day) (left prefrontal cortex; Hippocampus, Left): 19
Z-score, effect of LTG (between day) (left prefrontal cortex; Hippocampus, Left, Talairach −25,−11,−25, p < .05): 2.26
Voxels, effect of LTG (between day) (left prefrontal cortex; Insula, Right): 57
Z-score, effect of LTG (between day) (left prefrontal cortex; Insula, Right, Talairach 39,13,1, p < .01): 2.83
Voxels, effect of LTG (between day) (left prefrontal cortex; Postcentral gyrus, Right): 59
Z-score, effect of LTG (between day) (left prefrontal cortex; Postcentral gyrus, Right, Talairach 53,−32,40, p < .01): 2.83
Voxels, effect of LTG (between day) (left prefrontal cortex; Temporal lobe, Left): 112
Z-score, effect of LTG (between day) (left prefrontal cortex; Temporal lobe, Left, Talairach −43,15,−25, p < .001): 3.78
brain activity in the hippocampus and the orbital frontal gyrus, compared to placebo (left prefrontal cortex; formal between-day analysis, 100% RMT prefrontal stimulation vs rest, 8 subjects): increased brain activity; also recorded: increases this activity
% BOLD signal change in left hippocampus, LTG vs placebo, entire time series (left prefrontal cortex; prefrontal TMS, 8 subjects, ANOVA F=1.12, p=0.326): failed to show significant differences
% BOLD change in left hippocampus compared with placebo, TMS phase (left prefrontal cortex; prefrontal TMS, time points 14-17, 8 subjects, t=−2.69, p=0.009): significantly increased
serum concentrations after single oral dose [1]: equal to steady state levels at clinically relevant chronic doses
resting motor threshold (RMT) [2]: significantly increased
adverse effects of the drug treatment or the stimulation [3]: None of the subjects reported experiencing adverse effects
